The values below come from patent publication US11479556B1, “Bifunctional compounds for degrading BTK via ubiquitin proteosome pathway” (NURIX THERAPEUTICS, INC., priority 2018, dated 2022).

T1 sequence (Q06187 whole entry): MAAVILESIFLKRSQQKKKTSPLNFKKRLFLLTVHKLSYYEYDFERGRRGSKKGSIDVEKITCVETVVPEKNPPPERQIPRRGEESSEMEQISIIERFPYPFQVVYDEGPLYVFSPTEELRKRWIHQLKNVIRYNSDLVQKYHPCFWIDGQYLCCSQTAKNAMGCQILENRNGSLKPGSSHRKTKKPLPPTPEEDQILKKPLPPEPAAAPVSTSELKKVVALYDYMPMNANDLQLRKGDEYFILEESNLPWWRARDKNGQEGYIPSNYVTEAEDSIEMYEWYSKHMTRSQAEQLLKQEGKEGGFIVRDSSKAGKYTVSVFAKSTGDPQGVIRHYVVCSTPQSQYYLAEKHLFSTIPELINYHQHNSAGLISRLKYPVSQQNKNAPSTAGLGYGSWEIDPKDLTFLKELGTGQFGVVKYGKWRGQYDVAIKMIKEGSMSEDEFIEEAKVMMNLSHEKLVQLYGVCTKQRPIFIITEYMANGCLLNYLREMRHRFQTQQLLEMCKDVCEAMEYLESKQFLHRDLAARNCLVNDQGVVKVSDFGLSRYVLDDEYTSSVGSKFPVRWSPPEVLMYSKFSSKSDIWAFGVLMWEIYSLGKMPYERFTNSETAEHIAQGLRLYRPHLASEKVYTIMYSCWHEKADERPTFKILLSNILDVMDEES

This assay addresses T1, BTK (Homo sapiens, UniProt Q06187).
T1 construct: endogenous in cells; host or cells: TMD8 cells
Kind of assay: Cellular BTK HTRF assay (BTK degradation) in TMD8 cells. It is filed as cell-based. The following applies: four hours incubation, Total-BTK HTRF relative to DMSO-treated cells. The protocol:
Example 66: BTK Degradation Assay
TMD8 cells were obtained from Tokyo Medical and Dental University and were grown in alpha-MEM (Fisher 12571063) supplemented with 10% heat-inactivated FBS (Corning Premium Fetal Bovine Serum from Fisher, MT35015CV).
Compounds of the present invention were added to 50,000 TMD8 cells in round-bottom 96 well plates with a final DMSO concentration of […] and were incubated at 37° C. 5% CO2 for four hours. BTK levels were determined using Cisbio Total-BTK HTRF ([…] Time-Resolved Fluorescence) kit (63ADK064PEG) according to manufacturer's protocol. Briefly, cells were incubated in 1× supplied lysis buffer for 30 minutes. In an opaque white low volume 96 well plate (Cisbio, 66PL96005), cell lysate was combined with two different specific BTK antibodies, one conjugated with Eu^3+-Cryptate FRET donor and one conjugated with d2 FRET acceptor. Assay controls include wells containing cell lysate with only the Eu^3+-Cryptate FRET donor antibody and wells containing both HTRF antibodies and lysis buffer without cells or control lysate provided by Cisbio. HTRF ratio was calculated as (acceptor signal at 665 nm/donor signal at 620 nm)×10^4. Background HTRF levels were determined from the control well containing the donor, but no acceptor, antibody. Background HTRF levels were subtracted from all samples. Readouts were reported as HTRF levels relative to HTRF levels of DMSO-treated cells. Four-parameter non-linear regressions were performed in GraphPad Prism 7.02 to obtain DC50 values. DC50 values are provided in Table 3, wherein A<5.0 nM, 5.0 nM≤B≤15 nM, and 15 nM<C.
A general note: TR-FRET usually uses a lanthanide donor and a delayed reading to cut background.
As usually defined, the DC50 is the concentration giving 50% degradation. High values mean degradation only at high concentration, low ones degradation at low concentration. In turn, `CN1CCN([C@@H]2CCCN(c3cnc(C(N)=O)c(Nc4ccc(N5CCN(C[C@H]6CCN(c7ccc8c(c7)C(=O)N(C7CCC(=O)NC7=O)C8=O)C6)CC5)cc4)n3)C2)C1=O` (stereo partly drawn) [Compound 42] registered a 50% degradation concentration (DC50) below 5 nM.

For `CN1CCN([C@@H]2CCCN(c3cnc(C(N)=O)c(Nc4ccc(N5CCN(CCC6CN(c7ccc8c(c7)C(=O)N(C7CCC(=O)NC7=O)C8=O)C6)CC5)cc4)n3)C2)C1=O` (stereo partly drawn) [Compound 43], the DC50 is below 5 nM.

In turn, `CN1CCN([C@@H]2CCCN(c3cnc(C(N)=O)c(Nc4ccc(C5CCN(CCC6CN(c7ccc8c(c7)C(=O)N(C7CCC(=O)NC7=O)C8=O)C6)CC5)cc4)n3)C2)C1=O` (stereo partly drawn) [Compound 45] returned a 50% degradation concentration (DC50) below 5 nM.

For the compound `CN1CCN([C@@H]2CCCN(c3cnc(C(N)=O)c(Nc4ccc(N5CCN(C[C@@H]6CCCN(c7ccc8c(c7)C(=O)N(C7CCC(=O)NC7=O)C8=O)C6)CC5)cc4)n3)C2)C1=O` (stereo partly drawn) [Compound 46], the DC50 was below 5 nM.

As to `CN1CCN([C@@H]2CCCN(c3cnc(C(N)=O)c(Nc4ccc(C5CCN(c6ccc7c(c6)C(=O)N(C6CCC(=O)NC6=O)C7=O)CC5)cc4)n3)C2)C1=O` (stereo partly drawn) [Compound 47], the DC50 is below 5 nM.

Turning to `CN1CCN([C@@H]2CCCN(c3cnc(C(N)=O)c(Nc4ccc(N5CCN(C[C@H]6CCCN(c7ccc8c(c7)C(=O)N(C7CCC(=O)NC7=O)C8=O)C6)CC5)cc4)n3)C2)C1=O` (stereo partly drawn) [Compound 48], the DC50 is below 5 nM.

With `CN1CCN([C@@H]2CCCN(c3cnc(C(N)=O)c(Nc4ccc(N5CCN(CC6CCN(c7ccc8c(c7)C(=O)N(C7CCC(=O)NC7=O)C8=O)CC6)CC5)cc4)n3)C2)C1=O` (stereo partly drawn) [Compound 49], the DC50 was below 5 nM.

With `CN1CCN([C@@H]2CCCN(c3cnc(C(N)=O)c(Nc4ccc(C5CCN(C[C@H]6CCCN(c7ccc8c(c7)C(=O)N(C7CCC(=O)NC7=O)C8=O)C6)CC5)cc4)n3)C2)C1=O` (stereo partly drawn) [Compound 50], the 50% degradation concentration (DC50) is below 5 nM.

With `CN1CCN([C@@H]2CCCN(c3cnc(C(N)=O)c(Nc4ccc(C5CCN(C[C@@H]6CCN(c7ccc8c(c7)C(=O)N(C7CCC(=O)NC7=O)C8=O)C6)CC5)cc4)n3)C2)C1=O` (stereo partly drawn) [Compound 52], the DC50 is below 5 nM.

Compound `CN1CCN([C@@H]2CCCN(c3cnc(C(N)=O)c(Nc4ccc(C5CCN(CC6CN(c7ccc8c(c7)C(=O)N(C7CCC(=O)NC7=O)C8=O)C6)CC5)cc4)n3)C2)C1=O` (stereo partly drawn) [Compound 54] returned a DC50 below 5 nM.

Take `CN1CCN([C@@H]2CCCN(c3cnc(C(N)=O)c(Nc4ccc(N5CCC6(CC5)CCN(c5ccc7c(c5)C(=O)N(C5CCC(=O)NC5=O)C7=O)CC6)cc4)n3)C2)C1=O` (stereo partly drawn) [Compound 55]: the DC50 is below 5 nM.

`CN1CCN([C@@H]2CCCN(c3cnc(C(N)=O)c(Nc4ccc(N5CCC6(CCN(CCCCc7cccc8c7CN(C7CCC(=O)NC7=O)C8=O)CC6)CC5)cc4)n3)C2)C1=O` (stereo partly drawn) [Compound 56] yielded a DC50 below 5 nM.

Compound `CN1CCN([C@@H]2CCCN(c3cnc(C(N)=O)c(Nc4ccc(N5CCC6(CCN(C(=O)CCOCCCc7cccc8c7CN(C7CCC(=O)NC7=O)C8=O)CC6)CC5)cc4)n3)C2)C1=O` (stereo partly drawn) [Compound 57, 3-((4-(9-(3-(3-(2-(2,6-dioxopiperidin-3-yl)-1-oxoisoindolin-4-yl)propoxy)propanoyl)-3,9-diazaspiro[5.5]undecan-3-yl)phenyl)amino)-5-((R)-3-(3-methyl-2-oxoimidazolidin-1-yl)piperidin-1-yl)pyrazine-2-carboxamide] yielded a DC50 below 5 nM.

`CN1CCN([C@@H]2CCCN(c3cnc(C(N)=O)c(Nc4ccc(C5(C)CCN(c6ccc7c(c6)C(=O)N(C6CCC(=O)NC6=O)C7=O)CC5)cc4)n3)C2)C1=O` (stereo partly drawn) [Compound 58] gave a DC50 of 5 to 15 nM.

As to `CN1CCN([C@@H]2CCCN(c3cnc(C(N)=O)c(Nc4ccc(N5CCN(C[C@@H]6CCN(c7ccc8c(c7)C(=O)N(C7CCC(=O)NC7=O)C8=O)C6)CC5)cc4)n3)C2)C1=O` (stereo partly drawn) [Compound 59], the 50% degradation concentration (DC50) is below 5 nM.

The compound `CN1CCN([C@@H]2CCCN(c3cnc(C(N)=O)c(Nc4ccc(N5CCN(CC6CN(c7ccc8c(c7)C(=O)N(C7CCC(=O)NC7=O)C8=O)C6)CC5)cc4)n3)C2)C1=O` (stereo partly drawn) [Compound 60] displayed a 50% degradation concentration (DC50) below 5 nM.

`CN1CCN([C@@H]2CCCN(c3cnc(C(N)=O)c(Nc4cccc(NC(=O)CCCN5CCN(c6ccc7c(c6)C(=O)N(C6CCC(=O)NC6=O)C7=O)CC5)c4)n3)C2)C1=O` (stereo partly drawn) [Compound 62] came in with a DC50 above 15 nM.

For `CN1CCN([C@@H]2CCCN(c3cnc(C(N)=O)c(Nc4cccc(NC(=O)[C@H]5C[C@@H](OCCCc6cccc7c6C(=O)N(C6CCC(=O)NC6=O)C7=O)C5)c4)n3)C2)C1=O` (stereo partly drawn) [Compound 63], the DC50 is above 15 nM.

Take `CN1CCN([C@@H]2CCCN(c3cnc(C(N)=O)c(Nc4ccc(CCCNc5ccc6c(c5)C(=O)N(C5CCC(=O)NC5=O)C6=O)cc4)n3)C2)C1=O` (stereo partly drawn) [Compound 65]: the DC50 is above 15 nM.

On to `CN1CCN([C@@H]2CCCN(c3cnc(C(N)=O)c(Nc4ccc(C5(C)CCN(C6CC(Nc7cccc8c7C(=O)N(C7CCC(=O)NC7=O)C8=O)C6)CC5)cc4)n3)C2)C1=O` (stereo partly drawn) [Compound 66], for which the DC50 was below 5 nM.

On to `NC(=O)c1ncc(N2CCCCC2)nc1Nc1ccc(N2CCN(C(=O)CCOCCCc3cccc4c3CN(C3CCC(=O)NC3=O)C4=O)CC2)cc1` (stereo not drawn) [Compound 67], for which the DC50 was above 15 nM.

In turn, `CN1CCN([C@@H]2CCCN(c3cnc(C(N)=O)c(Nc4ccc(C5CN(CC6CCN(c7ccc8c(=O)n(C9CCC(=O)NC9=O)ccc8c7)CC6)C5)cc4)n3)C2)C1=O` (stereo partly drawn) [Compound 69] showed a 50% degradation concentration (DC50) below 5 nM.

As to `CN1CCN([C@@H]2CCCN(c3cnc(C(N)=O)c(Nc4ccc(N5CC6CN(Cc7ccc8c(c7)C(=O)N(C7CCC(=O)NC7=O)C8=O)CC6C5)cc4)n3)C2)C1=O` (stereo partly drawn) [Compound 76], the DC50 fell in the range of 5 to 15 nM.

For the compound `CN1CCN([C@H]2CCCN(c3cnc(C(N)=O)c(Nc4cnn(C5CCN(C6CCN(c7ccc8c(c7)C(=O)N(C7CCC(=O)NC7=O)C8=O)CC6)CC5)c4)n3)C2)C1=O` (stereo partly drawn) [Compound 77], the DC50 was below 5 nM.

The compound `CN1CCN([C@H]2CCCN(c3cnc(C(N)=O)c(Nc4ccc(N5CC6CN(c7ccc8c(c7)C(=O)N(C7CCC(=O)NC7=O)C8=O)CC6C5)cc4)n3)C2)C1=O` (stereo partly drawn) [Compound 79] returned a DC50 above 15 nM.

For `CN1CCN([C@H]2CCCN(c3cnc(C(N)=O)c(Nc4ccc(N5CCC6(CCN(c7ccc8c(c7)C(=O)N(C7CCC(=O)NC7=O)C8=O)CC6)CC5)nc4)n3)C2)C1=O` (stereo partly drawn) [Compound 80], the DC50 is below 5 nM.

With `CN1CCN([C@H]2CCCN(c3cnc(C(N)=O)c(Nc4ccc(N5CCC6(CC5)CCN(c5ccc7c(c5)C(=O)N(C5CCC(=O)NC5=O)C7=O)CC6)cn4)n3)C2)C1=O` (stereo partly drawn) [Compound 81], the DC50 was above 15 nM.

The compound `CN1CCN([C@@H]2CCCN(c3cnc(C(N)=O)c(Nc4ccc(N5CCN(CC6CN(c7ccc8c(c7)C(=O)N(C7CCC(=O)NC7=O)C8=O)C6)CC5)cc4)n3)C2)C1=O` (stereo partly drawn) [Compound 82] came in with a half-maximal degradation concentration (DC50) below 5 nM.

In turn, `CN1CCN([C@H]2CCCN(c3cnc(C(N)=O)c(Nc4cnn(C5CCN(CC6CCN(c7ccc8c(c7)C(=O)N(C7CCC(=O)NC7=O)C8=O)CC6)CC5)c4)n3)C2)C1=O` (stereo partly drawn) [Compound 83] showed a DC50 below 5 nM.

In turn, `CN1CCN([C@H]2CCCN(c3cnc(C(N)=O)c(Nc4cnn(C5CCN(CCCc6cccc7c6CN(C6CCC(=O)NC6=O)C7=O)CC5)c4)n3)C2)C1=O` (stereo partly drawn) [Compound 84] returned a half-maximal degradation concentration (DC50) above 15 nM.

For `CN1CCN([C@@H]2CCCN(c3cnc(C(N)=O)c(Nc4ccc(C5CN(CC6CN(c7ccc8c(c7)C(=O)N(C7CCC(=O)NC7=O)C8=O)C6)C5)cc4)n3)C2)C1=O` (stereo partly drawn) [Compound 85], the half-maximal degradation concentration (DC50) is below 5 nM.

`CN1CCN([C@@H]2CCCN(c3cnc(C(N)=O)c(Nc4ccc(C5CCN(C6CN(Cc7ccc8c(c7)CN(C7CCC(=O)NC7=O)C8=O)C6)CC5)cc4)n3)C2)C1=O` (stereo partly drawn) [Compound 86] had a DC50 below 5 nM.

`CN1CCN([C@H]2CCCN(c3cnc(C(N)=O)c(Nc4ccc(C5CCN(C[C@H]6CCCN6c6ccc7c(c6)C(=O)N(C6CCC(=O)NC6=O)C7=O)CC5)cc4)n3)C2)C1=O` (stereo partly drawn) [Compound 87] yielded a DC50 below 5 nM.

Take `CN1CCN([C@H]2CCCN(c3cnc(C(N)=O)c(Nc4ccc(N5CCN(CCCCc6cccc7c6CN(C6CCC(=O)NC6=O)C7=O)CC5)cn4)n3)C2)C1=O` (stereo partly drawn) [Compound 88]: the DC50 is above 15 nM.

`CN1CCN([C@@H]2CCCN(c3cnc(C(N)=O)c(Nc4ccc(N5CCN(C[C@H]6CCN(c7ccc8c(c7)C(=O)N(C7CCC(=O)NC7=O)C8=O)C6)CC5)cn4)n3)C2)C1=O` (stereo partly drawn) [Compound 89] displayed a DC50 of 5 to 15 nM.

Consider `CN1CCN([C@H]2CCCN(c3cnc(C(N)=O)c(Nc4ccc(C(=O)N5CCN(Cc6ccc7c(c6)C(=O)N(C6CCC(=O)NC6=O)C7=O)CC5)cc4)n3)C2)C1=O` (stereo partly drawn) [Compound 90], for which the 50% degradation concentration (DC50) was 5 to 15 nM.

`CN1CCN([C@@H]2CCCN(c3cnc(C(N)=O)c(Nc4ccc(N5CC6CN(CC7CN(c8ccc9c(c8)C(=O)N(C8CCC(=O)NC8=O)C9=O)C7)CC6C5)cc4)n3)C2)C1=O` (stereo partly drawn) [Compound 91] gave a DC50 below 5 nM.

For the compound `CN1CCN([C@@H]2CCCN(c3cnc(C(N)=O)c(Nc4ccc(N5CCC6(CC5)CN(Cc5ccc7c(c5)C(=O)N(C5CCC(=O)NC5=O)C7=O)C6)cc4)n3)C2)C1=O` (stereo partly drawn) [Compound 93], the DC50 is below 5 nM.

In turn, `CN1CCN([C@H]2CCCN(c3cnc(C(N)=O)c(Nc4ccc(N5CCCC6(CN(Cc7ccc8c(c7)C(=O)N(C7CCC(=O)NC7=O)C8=O)C6)C5)cc4)n3)C2)C1=O` (stereo partly drawn) [Compound 94] yielded a DC50 below 5 nM.
